Calls of active or inactive are those of the source. Some results are limits rather than exact numbers.

Kd data for 13 molecules are collected here from ChEMBL document CHEMBL3991601, “The target landscape of clinical kinase drugs” (Science, 2017).

For assay [1], the target named is T1, Adenine phosphoribosyltransferase (Homo sapiens, UniProt P07741).
T1 sequence (P07741 whole entry): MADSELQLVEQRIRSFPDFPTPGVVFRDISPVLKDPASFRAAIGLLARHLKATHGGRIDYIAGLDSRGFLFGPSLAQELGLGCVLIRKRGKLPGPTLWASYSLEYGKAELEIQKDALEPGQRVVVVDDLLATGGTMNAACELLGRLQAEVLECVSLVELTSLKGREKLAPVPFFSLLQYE

The target of assay [2] is Cyclin-dependent kinase 2 (Homo sapiens, UniProt P24941).
For assay [3], the target named is Dual specificity protein kinase CLK2 (Homo sapiens, UniProt P49760).
Sequence of Dual specificity protein kinase CLK2 (P49760 whole entry): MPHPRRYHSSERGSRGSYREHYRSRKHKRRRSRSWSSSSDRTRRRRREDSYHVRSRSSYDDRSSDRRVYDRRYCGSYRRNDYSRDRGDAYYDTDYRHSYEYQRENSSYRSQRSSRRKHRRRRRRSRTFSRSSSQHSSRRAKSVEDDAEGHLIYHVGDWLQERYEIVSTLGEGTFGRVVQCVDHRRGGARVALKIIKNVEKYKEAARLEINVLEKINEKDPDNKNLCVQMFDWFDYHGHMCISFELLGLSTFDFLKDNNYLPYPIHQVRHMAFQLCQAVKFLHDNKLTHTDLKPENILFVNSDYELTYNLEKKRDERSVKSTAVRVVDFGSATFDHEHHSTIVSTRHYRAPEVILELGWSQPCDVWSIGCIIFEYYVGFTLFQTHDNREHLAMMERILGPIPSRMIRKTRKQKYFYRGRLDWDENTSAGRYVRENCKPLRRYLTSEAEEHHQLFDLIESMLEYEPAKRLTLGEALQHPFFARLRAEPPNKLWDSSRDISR
Assay [4] deals with Guanine nucleotide-binding protein G(i) subunit alpha-2 (Homo sapiens, UniProt P04899).
Sequence of Guanine nucleotide-binding protein G(i) subunit alpha-2 (P04899 whole entry): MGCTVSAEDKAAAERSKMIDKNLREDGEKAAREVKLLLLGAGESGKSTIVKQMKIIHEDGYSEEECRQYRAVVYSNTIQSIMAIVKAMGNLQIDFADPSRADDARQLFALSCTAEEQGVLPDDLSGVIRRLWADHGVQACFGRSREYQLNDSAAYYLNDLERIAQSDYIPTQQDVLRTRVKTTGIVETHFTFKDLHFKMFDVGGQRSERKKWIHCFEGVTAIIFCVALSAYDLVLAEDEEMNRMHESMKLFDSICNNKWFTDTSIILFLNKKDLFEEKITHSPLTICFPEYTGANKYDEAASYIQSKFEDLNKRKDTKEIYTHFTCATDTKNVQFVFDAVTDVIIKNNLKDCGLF
Assay [5] concerns the target T2, Inhibitor of nuclear factor kappa-B kinase subunit epsilon (Homo sapiens, UniProt Q14164).
T2 sequence (Q14164 whole entry): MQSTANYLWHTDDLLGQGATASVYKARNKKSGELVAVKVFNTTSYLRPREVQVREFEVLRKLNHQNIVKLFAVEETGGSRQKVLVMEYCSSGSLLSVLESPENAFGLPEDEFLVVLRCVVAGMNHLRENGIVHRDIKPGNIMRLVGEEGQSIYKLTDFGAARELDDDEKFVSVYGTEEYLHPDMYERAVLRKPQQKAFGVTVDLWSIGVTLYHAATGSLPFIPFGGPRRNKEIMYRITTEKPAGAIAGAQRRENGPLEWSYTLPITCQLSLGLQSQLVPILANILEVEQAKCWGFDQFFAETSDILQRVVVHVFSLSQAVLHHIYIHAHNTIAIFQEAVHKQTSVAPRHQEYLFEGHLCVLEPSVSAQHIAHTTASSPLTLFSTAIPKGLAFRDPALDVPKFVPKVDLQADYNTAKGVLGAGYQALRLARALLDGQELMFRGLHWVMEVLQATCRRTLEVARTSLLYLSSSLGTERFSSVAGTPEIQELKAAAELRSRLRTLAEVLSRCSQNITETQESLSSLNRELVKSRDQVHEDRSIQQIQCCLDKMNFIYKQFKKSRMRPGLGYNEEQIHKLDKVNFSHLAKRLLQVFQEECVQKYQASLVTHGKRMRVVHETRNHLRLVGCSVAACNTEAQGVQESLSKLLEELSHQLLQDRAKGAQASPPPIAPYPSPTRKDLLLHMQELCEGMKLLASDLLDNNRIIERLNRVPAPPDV

Assay [6] addresses MAP kinase-activated protein kinase 3 (Homo sapiens, UniProt Q16644).
Assay [7] addresses Phosphatidylethanolamine-binding protein 1 (Homo sapiens, UniProt P30086).
The target in assay [8] is T3, Phosphatidylinositol 5-phosphate 4-kinase type-2 alpha (Homo sapiens, UniProt P48426).
T3 sequence (P48426 whole entry): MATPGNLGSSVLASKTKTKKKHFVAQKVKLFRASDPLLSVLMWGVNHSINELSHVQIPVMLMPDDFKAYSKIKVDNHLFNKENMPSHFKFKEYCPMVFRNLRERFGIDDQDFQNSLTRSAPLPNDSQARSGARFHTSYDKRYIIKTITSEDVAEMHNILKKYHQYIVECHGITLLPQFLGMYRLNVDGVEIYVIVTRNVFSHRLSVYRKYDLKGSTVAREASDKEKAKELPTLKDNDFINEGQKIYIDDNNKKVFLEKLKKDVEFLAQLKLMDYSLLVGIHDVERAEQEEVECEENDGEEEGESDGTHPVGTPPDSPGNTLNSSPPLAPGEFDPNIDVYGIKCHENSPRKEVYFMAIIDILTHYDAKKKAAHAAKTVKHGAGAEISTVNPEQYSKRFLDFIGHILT

The target of assay [9] is Serine/threonine-protein kinase N3 (Homo sapiens, UniProt Q6P5Z2).
Sequence of Serine/threonine-protein kinase N3 (Q6P5Z2 whole entry): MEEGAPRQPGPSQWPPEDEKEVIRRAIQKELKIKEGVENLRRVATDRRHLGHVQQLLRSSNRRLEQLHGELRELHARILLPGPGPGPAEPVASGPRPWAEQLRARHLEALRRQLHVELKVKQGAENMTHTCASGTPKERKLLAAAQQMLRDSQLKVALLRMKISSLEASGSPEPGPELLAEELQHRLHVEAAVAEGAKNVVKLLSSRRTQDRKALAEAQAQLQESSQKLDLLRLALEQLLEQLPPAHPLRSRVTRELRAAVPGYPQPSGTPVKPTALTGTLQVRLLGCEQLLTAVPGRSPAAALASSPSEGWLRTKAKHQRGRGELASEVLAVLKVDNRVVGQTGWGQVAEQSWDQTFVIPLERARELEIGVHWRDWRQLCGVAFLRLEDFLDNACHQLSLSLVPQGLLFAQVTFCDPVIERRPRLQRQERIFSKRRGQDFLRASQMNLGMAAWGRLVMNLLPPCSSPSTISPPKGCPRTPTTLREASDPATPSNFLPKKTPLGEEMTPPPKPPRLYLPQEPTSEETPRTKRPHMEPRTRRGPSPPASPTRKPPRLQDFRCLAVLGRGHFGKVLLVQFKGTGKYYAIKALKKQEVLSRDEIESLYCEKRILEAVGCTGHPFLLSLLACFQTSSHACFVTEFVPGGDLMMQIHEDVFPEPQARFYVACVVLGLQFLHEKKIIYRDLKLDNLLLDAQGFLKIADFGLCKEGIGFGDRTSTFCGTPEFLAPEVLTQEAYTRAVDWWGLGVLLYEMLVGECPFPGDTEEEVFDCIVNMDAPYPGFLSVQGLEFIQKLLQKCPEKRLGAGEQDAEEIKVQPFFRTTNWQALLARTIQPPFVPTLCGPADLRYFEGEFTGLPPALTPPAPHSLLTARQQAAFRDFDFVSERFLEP
For assay [10], the target named is Serine/threonine-protein kinase ATR (Homo sapiens, UniProt Q13535).
Sequence of Serine/threonine-protein kinase ATR (Q13535 whole entry): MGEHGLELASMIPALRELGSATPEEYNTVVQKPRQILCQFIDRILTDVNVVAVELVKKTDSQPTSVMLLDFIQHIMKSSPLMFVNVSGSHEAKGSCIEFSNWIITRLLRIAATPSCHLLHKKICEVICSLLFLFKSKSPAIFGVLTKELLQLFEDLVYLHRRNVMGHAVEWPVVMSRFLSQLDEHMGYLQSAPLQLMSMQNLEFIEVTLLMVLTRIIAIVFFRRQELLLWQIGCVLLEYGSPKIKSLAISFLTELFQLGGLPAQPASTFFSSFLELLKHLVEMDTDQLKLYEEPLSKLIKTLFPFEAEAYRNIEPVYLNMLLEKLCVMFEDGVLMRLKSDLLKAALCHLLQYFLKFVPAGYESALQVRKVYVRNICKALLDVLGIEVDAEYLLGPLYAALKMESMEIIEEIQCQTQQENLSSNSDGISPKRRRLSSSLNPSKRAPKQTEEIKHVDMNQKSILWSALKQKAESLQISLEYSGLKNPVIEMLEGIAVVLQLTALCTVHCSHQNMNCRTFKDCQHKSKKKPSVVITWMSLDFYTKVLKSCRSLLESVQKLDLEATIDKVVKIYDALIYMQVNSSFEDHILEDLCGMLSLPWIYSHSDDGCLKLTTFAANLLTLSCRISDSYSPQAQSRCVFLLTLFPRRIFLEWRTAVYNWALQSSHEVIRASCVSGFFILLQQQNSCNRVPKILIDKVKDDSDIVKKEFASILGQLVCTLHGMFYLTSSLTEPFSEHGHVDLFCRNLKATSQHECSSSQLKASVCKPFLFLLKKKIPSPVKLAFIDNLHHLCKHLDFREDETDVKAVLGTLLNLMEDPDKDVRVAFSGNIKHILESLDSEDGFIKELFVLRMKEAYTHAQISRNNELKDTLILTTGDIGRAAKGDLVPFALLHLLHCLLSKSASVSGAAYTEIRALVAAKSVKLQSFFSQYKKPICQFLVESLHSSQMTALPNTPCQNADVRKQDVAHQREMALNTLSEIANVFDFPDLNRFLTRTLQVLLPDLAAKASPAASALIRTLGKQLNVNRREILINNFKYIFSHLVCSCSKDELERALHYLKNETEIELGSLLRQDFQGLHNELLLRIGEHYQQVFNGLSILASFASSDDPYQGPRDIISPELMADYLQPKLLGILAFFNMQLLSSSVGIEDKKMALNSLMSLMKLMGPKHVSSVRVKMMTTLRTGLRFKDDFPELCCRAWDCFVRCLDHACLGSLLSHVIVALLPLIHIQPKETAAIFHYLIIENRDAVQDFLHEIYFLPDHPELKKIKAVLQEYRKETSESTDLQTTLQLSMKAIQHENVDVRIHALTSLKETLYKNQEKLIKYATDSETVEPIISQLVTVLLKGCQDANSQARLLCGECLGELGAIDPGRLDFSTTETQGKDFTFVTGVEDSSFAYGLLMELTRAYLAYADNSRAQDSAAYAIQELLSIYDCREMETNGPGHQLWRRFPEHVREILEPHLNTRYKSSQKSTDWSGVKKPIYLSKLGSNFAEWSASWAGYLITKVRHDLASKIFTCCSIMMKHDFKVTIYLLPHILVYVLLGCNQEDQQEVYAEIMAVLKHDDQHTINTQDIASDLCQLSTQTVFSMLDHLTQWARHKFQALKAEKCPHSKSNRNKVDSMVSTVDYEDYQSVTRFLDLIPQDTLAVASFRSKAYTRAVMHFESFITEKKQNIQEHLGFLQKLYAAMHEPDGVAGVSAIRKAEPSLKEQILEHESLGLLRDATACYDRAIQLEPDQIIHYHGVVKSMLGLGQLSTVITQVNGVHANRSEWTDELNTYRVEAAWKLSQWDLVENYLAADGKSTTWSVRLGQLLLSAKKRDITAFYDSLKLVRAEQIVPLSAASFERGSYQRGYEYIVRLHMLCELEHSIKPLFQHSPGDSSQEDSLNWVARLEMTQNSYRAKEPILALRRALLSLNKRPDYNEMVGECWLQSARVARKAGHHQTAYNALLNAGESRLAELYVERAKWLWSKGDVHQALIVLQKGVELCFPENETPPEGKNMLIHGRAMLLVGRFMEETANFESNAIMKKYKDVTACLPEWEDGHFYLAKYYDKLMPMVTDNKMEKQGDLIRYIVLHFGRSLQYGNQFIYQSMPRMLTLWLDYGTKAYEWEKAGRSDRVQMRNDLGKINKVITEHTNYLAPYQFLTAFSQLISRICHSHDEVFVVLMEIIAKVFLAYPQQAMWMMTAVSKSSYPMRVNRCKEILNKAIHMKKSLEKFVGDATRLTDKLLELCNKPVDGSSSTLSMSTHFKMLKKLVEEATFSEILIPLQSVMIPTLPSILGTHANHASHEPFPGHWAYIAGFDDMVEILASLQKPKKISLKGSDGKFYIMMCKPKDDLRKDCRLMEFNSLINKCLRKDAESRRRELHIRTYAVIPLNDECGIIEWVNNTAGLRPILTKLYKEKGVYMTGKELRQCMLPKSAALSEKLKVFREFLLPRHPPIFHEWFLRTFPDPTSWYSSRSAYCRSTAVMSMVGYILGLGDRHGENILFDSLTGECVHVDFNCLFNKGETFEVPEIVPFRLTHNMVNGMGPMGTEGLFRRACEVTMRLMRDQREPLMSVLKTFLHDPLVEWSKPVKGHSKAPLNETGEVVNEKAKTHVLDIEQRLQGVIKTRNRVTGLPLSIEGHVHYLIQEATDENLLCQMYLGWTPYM
Assay [11] addresses T4, Cyclin-dependent kinase-like 5 (Homo sapiens, UniProt O76039).
T4 sequence (O76039 whole entry): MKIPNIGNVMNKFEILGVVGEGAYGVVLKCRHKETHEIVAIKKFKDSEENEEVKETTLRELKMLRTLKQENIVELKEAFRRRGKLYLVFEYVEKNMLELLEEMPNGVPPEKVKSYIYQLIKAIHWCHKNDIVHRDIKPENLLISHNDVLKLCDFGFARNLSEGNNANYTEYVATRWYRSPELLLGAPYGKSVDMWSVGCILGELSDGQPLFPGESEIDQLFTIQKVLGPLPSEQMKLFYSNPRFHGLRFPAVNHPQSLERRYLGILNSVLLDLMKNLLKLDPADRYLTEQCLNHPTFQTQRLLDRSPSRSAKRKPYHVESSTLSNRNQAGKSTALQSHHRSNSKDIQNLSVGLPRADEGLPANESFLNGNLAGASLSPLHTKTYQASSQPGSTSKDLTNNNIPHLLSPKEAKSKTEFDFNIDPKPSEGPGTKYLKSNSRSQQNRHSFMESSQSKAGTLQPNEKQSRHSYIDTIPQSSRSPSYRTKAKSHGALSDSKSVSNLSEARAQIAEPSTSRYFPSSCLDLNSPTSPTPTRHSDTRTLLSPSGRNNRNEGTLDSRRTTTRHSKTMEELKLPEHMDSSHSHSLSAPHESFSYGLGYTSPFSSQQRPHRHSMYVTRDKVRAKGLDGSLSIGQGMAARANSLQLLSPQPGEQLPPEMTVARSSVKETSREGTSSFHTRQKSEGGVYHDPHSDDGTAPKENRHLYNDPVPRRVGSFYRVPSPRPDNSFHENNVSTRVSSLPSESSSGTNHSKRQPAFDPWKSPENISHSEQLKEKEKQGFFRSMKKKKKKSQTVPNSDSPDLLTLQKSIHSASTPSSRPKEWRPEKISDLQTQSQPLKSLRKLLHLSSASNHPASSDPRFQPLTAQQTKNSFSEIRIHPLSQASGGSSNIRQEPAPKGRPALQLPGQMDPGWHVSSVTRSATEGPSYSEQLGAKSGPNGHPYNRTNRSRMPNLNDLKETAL
Further: in the data inactive means no Kd found up to 30 µM.

Sequence of MAP kinase-activated protein kinase 3 (Q16644 whole entry): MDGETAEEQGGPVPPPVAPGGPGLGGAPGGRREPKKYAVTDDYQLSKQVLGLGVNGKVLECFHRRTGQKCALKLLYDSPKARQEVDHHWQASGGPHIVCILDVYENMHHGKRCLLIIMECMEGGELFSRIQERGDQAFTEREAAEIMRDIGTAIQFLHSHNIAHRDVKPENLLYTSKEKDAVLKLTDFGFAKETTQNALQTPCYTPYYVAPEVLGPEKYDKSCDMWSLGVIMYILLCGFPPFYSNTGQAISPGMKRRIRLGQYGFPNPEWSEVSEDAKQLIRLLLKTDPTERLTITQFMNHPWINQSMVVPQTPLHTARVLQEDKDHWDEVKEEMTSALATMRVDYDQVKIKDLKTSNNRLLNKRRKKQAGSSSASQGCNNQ
Sequence of Phosphatidylethanolamine-binding protein 1 (P30086 whole entry): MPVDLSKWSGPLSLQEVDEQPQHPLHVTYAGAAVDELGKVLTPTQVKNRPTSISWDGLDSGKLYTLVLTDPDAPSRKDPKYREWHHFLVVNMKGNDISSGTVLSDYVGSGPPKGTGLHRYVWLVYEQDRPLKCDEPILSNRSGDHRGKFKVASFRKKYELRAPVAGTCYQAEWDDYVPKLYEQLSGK

Consider `COc1cc2nccc(Oc3ccc(NC(=O)NC4CC4)c(Cl)c3)c2cc1C(N)=O` [LENVATINIB], for which the Kd in assay [1], in assay [2], in assay [3], in [4], in assay [5] and in assay [6] was > 30 µM (inactive) each time. The Kd in assay [7], in assay [8] and in assay [9] was > 30 µM (inactive) throughout.

On to `O=C1NC(=O)/C(=C/c2ccc3nccc(-c4ccncc4)c3c2)S1` [GSK-1059615], for which the Kd (in general, a measure of binding affinity in units of concentration) is > 30 µM (inactive) in assay [10]; > 30 µM (inactive) in assay [2]; > 30 µM (inactive) in [11]; 0.0004 µM (active) in assay [3]; > 30 µM (inactive) in [4]; > 30 µM (inactive) in assay [5]. The Kd in assay [8] was > 30 µM (inactive).

On to `COc1cc(CCc2cc(NC(=O)c3ccc(N4C[C@@H](C)N[C@@H](C)C4)cc3)n[nH]2)cc(OC)c1` [AZD-4547], for which the Kd in [1], in [10], in assay [11], in assay [3], in assay [5] and in assay [8] was > 30 µM (inactive) each time. Moreover, in assay [9], the Kd is > 30 µM (inactive).

Turning to `COc1ccc(-c2ccc3c(N4CCOC[C@@H]4C)nc(N4CCOC[C@@H]4C)nc3n2)cc1CO` [AZD-8055], the Kd in assay [1], in [10], in [2], in assay [3], in [4] and in assay [5] was > 30 µM (inactive) in each case. Also, the Kd in assay [7], in [8] and in [9] was > 30 µM (inactive) throughout.

As for `Cc1ccc(-n2nc(C(C)(C)C)cc2NC(=O)NCc2cc(F)ccc2Oc2ccc3c(cnn3CCO)c2)cc1` [PEXMETINIB], the Kd in assay [1], in assay [2], in assay [3], in assay [4], in [5] and in assay [6] was > 30 µM (inactive) throughout. Further, the Kd in assay [7], in [8] and in assay [9] was > 30 µM (inactive) in each case.

Take `COc1cc(N2CCC(N3CCN(C)CC3)CC2)ccc1Nc1ncnc(Nc2ccccc2S(=O)(=O)C(C)C)n1` [ASP-3026]: the Kd in assay [10], in assay [2], in assay [11], in assay [3], in [4] and in [5] was > 30 µM (inactive) throughout. The Kd in assay [7] is > 30 µM (inactive).

Consider `C[C@@H](Nc1cc(F)cc(F)c1)c1cc(C(=O)N(C)C)cc2c(=O)cc(N3CCOCC3)oc12` [AZD-8186], for which the Kd in assay [10], in [2], in assay [11], in assay [4], in assay [5] and in assay [8] was > 30 µM (inactive) in each case.

Turning to `CCc1cnn2c(NCc3ccc[n+]([O-])c3)cc(N3CCCC[C@H]3CCO)nc12` [DINACICLIB], the Kd in [1], in assay [10], in [11], in assay [4], in assay [7] and in [8] was > 30 µM (inactive) each time. The Kd in assay [9] was > 30 µM (inactive).

For the molecule `CN1CCC(CNc2ccc3ncc(-c4cccc(OC(F)(F)F)c4)n3n2)CC1` [SGI-1776], the Kd in assay [1], in [2], in assay [11], in assay [3], in assay [4] and in assay [5] was > 30 µM (inactive) throughout. For the same molecule, the Kd in assay [6], in [8] and in [9] was > 30 µM (inactive) each time.

In the case of `Cc1ccc(S(=O)(=O)Nc2nc3ccccc3nc2Nc2ccc3nsnc3c2)cc1`, the Kd in [10], in assay [2], in [11], in assay [3], in [4] and in assay [5] was > 30 µM (inactive) throughout. Further, the Kd in assay [8] and in assay [9] was > 30 µM (inactive) throughout.

In the case of `CN(C)C(=O)c1cc2cnc(Nc3ccc(N4CCNCC4)cn3)nc2n1C1CCCC1` [RIBOCICLIB], the Kd in assay [10], in assay [11], in assay [4], in [5], in assay [7] and in [8] was > 30 µM (inactive) in each case.

As for `Cc1cc([C@@H](C)Nc2ccccc2C(=O)O)c2nc(N3CCOCC3)cc(=O)n2c1` [AZD-6482], the Kd in assay [1], in assay [10], in assay [2], in assay [3], in assay [4] and in [5] was > 30 µM (inactive) throughout. Further, the Kd in [7] and in assay [9] was > 30 µM (inactive) in each case.

For `CNS(=O)(=O)Nc1nccc(Cc2c(C)c3ccc(Oc4ncccn4)cc3oc2=O)c1F` [AVUTOMETINIB], the Kd in assay [1], in assay [2], in assay [3], in assay [4], in [5] and in assay [6] was > 30 µM (inactive) in each case. Besides, the Kd in assay [7], in assay [8] and in assay [9] was > 30 µM (inactive) in each case.
